{
  "source": "patent US5910482A",
  "about": "(priority 1996, dated 1999)",
  "key": {"pregnant rats [1]": {"tested_on": "pregnant rats", "assay": "Effects of L-NAME infusion on systolic blood pressure in pregnant rats", "type": "in vivo, rat", "settings": "n = 5", "method": "The effects of hypertensive agent L-NAME (50 mg/rat) on blood pressure were studied. […] L-NAME was infused as described in the FIG. 2."}, "pregnant rats [2]": {"tested_on": "pregnant rats", "assay": "Delivery day and pup survival after L-NAME infusion to pregnant rats; effect of CGRP on fetal survival", "type": "in vivo", "settings": "L-NAME 50/mg/day infusion to pregnant rats; 5 animals"}},
  "data": [
    {"smiles": "COC(=O)[C@@H](N)CCCNC(=N)N[N+](=O)[O-]", "note": "[L-NAME, N^G -nitro-L-arginine methyl ester]", "values": [
      {"measurement": "Systolic Blood Pressure", "setting": "pregnant rats [1]; Gestational Day 17 (before infusion start on day 18), L-NAME 50 mg/day", "value": "116 ± 3", "unit": "mm Hg"},
      {"measurement": "Systolic Blood Pressure", "setting": "pregnant rats [1]; Gestational Day 18, L-NAME 50 mg/day infused from day 18", "value": "137 ± 6", "unit": "mm Hg"},
      {"measurement": "Systolic Blood Pressure", "setting": "pregnant rats [1]; Gestational Day 19, L-NAME 50 mg/day infused from day 18", "value": "154 ± 3", "unit": "mm Hg"},
      {"measurement": "Systolic Blood Pressure", "setting": "pregnant rats [1]; Gestational Day 22, L-NAME 50 mg/day infused from day 18", "value": "137 ± 8", "unit": "mm Hg"},
      {"measurement": "Systolic Blood Pressure", "setting": "pregnant rats [1]; Postpartum PP Day 1, L-NAME 50 mg/day", "value": "145 ± 5", "unit": "mm Hg"},
      {"measurement": "Systolic Blood Pressure", "setting": "pregnant rats [1]; Postpartum PP Day 2, L-NAME 50 mg/day", "value": "140 ± 5", "unit": "mm Hg"},
      {"measurement": "# of dead pups", "setting": "pregnant rats [2]", "value": 10},
      {"measurement": "Weight of pups", "setting": "pregnant rats [2]", "value": "5.14 ± 0.07", "unit": "g"}
    ]}
  ]
}
